Test results published in ChEMBL document CHEMBL5576057, “Discovery of DS44470011: An oral hypoxia-inducible factor prolyl hydroxylase inhibitor for the treatment of renal anemia” (Bioorg Med Chem Lett, 2024).
Active and inactive are the calls of the source. The rule behind the calls is not given here.

Legend:
Hep 3B2 = test: […] activity against human Hep3B cells assessed as increase of erythropoietin release by measuring effective concentration; format: functional, cell-based
Egl nine homolog 1 = Egl nine homolog 1 (Homo sapiens, UniProt Q9GZT9)
Egl nine homolog 1, sequence (Q9GZT9 whole entry): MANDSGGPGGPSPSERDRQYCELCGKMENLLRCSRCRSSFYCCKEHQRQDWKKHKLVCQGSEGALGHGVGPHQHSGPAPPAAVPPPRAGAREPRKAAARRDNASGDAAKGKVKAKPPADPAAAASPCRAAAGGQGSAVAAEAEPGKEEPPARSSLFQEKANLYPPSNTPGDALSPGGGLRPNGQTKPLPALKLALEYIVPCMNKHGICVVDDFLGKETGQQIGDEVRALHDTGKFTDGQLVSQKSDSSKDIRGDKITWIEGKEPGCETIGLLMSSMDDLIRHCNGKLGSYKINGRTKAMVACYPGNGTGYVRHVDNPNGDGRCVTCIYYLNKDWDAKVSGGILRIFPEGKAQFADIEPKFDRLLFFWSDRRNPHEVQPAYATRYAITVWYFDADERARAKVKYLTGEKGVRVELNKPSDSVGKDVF

[1] = Metabolic stability in Cynomolgous monkey assessed as compound remaining; format: ADME, Macaca fascicularis; details: cynomolgus monkey
[2] = Protein binding in Cynomolgous monkey assessed as assessed as unbound fraction; format: ADME, Macaca fascicularis; details: cynomolgus monkey
[3] = AUC in Cynomolgous monkey at 3 mg/kg,po; format: ADME, organism-based, Macaca fascicularis; details: cynomolgus monkey, in vivo
[4] = Volume of distribution at steady state in Cynomolgous monkey at 1 mg/kg,iv; format: ADME, organism-based, Macaca fascicularis; details: cynomolgus monkey, in vivo, read-out: Vdss
[5] = Lipophilicity, logD of the compound; format: physicochemical; details: octanol/water
[6] = Cmax in Cynomolgous monkey at 3 mg/kg,po; format: ADME, organism-based, Macaca fascicularis; details: cynomolgus monkey, in vivo
Cynomolgus monkey [7] = test: animal or person; details: Macaca fascicularis, in Primates, po, 24 h
Cynomolgus monkey [8] = test: […] activity against Cynomolgous monkey assessed as increase of erythropoietin level in plasma at po administration measured after 12 hrs; format: functional, organism-based; details: Macaca fascicularis
[9] = Half life in Cynomolgous monkey at 1 mg/kg,iv; format: ADME, organism-based, Macaca fascicularis; details: cynomolgus monkey, in vivo

SMILES	EC50 (Hep 3B2) [µM]	IC50 (Egl nine homolog 1) [µM]	further results
Cc1nc(C(C)c2ccc(-c3ccccc3)cc2)nc(C(=O)NCC(=O)O)c1O (racemic)	16	18	
Cc1nc(C(F)(F)c2ccc(-c3ccccc3)cc2)nc(C(=O)NCC(=O)O)c1O		55	
Cc1nc(Cc2ccc(Cl)cc2)nc(C(=O)NCC(=O)O)c1O		17	
Cc1nc(C(=O)NCC(=O)O)c(O)c(-c2ccc(F)cc2)n1	108	39	
Cc1nc(Cc2ccc(-c3ccccc3)cc2)nc(C(=O)NCC(=O)O)c1C(=O)O		> 100	
Cc1nc(Cc2ccc(-c3ccccc3)cc2)nc(C(=O)N[C@H](C)C(=O)O)c1O		> 100	
Cc1nc(CCc2ccc(F)cc2)c(O)c(C(=O)NCC(=O)O)n1	36	8.1	
Cc1nc(Cc2ccc(-c3ccccc3)cc2)nc(C(=O)NCC(=O)O)c1S	67	13	
Cc1nc(Cc2cccc(-c3ccccc3)c2)nc(C(=O)NCC(=O)O)c1O	61	20	
Cc1nc(Cc2ccc(-c3ccccc3)cc2)nc(C(=O)NCC(=O)O)c1N		> 100	
Cc1nc(Cc2ccc(-c3ccccc3)cc2)nc(C(=O)NCC(=O)O)c1O	8.4	1.5	Stability [1]: 90%; Fu [2]: 0.6%; AUC [3]: 380 µg·h/mL; Vd [4]: 0.06 L/kg; logD [5]: 0.8; Cmax [6]: 28000 ng/mL; ED10 (Cynomolgus monkey [7]): 2.2 mg/kg; Activity (Cynomolgus monkey [8]): Active; half-life [9]: 13 h
CCc1nc(Cc2ccc(-c3ccccc3)cc2)nc(C(=O)NCC(=O)O)c1O	16	7.3	
Cc1nc(C)c(O)c(C(=O)NCC(=O)O)n1		11	
Cc1nc(Cc2ccc(C(C)(C)C)cc2)nc(C(=O)NCC(=O)O)c1O	25	3.9	
Cc1nc(Cc2ccc(-c3ccccc3)cc2)nc(C(=O)NCC(=O)O)c1C		> 100	
O=C(O)CNC(=O)c1nc(Cc2ccc(-c3ccccc3)cc2)nc(C(F)F)c1O	105	4.1	
Cc1nc(Cc2ccccc2-c2ccccc2)nc(C(=O)NCC(=O)O)c1O		17	
Cc1nc(Cc2ccc(-c3ccccc3)cc2)nc(C(=O)N[C@@H](C)C(=O)O)c1O	14	10	
Cc1nc(Cc2ccc(F)cc2)c(O)c(C(=O)NCC(=O)O)n1	51	11	
O=C(O)CNC(=O)c1nc(Cc2ccc(-c3ccccc3)cc2)ncc1O		> 100	
Cc1nc(Cc2ccc(-c3ccccc3)cc2)c(O)c(C(=O)NCC(=O)O)n1	27	10	
O=C(O)CNC(=O)c1nc(Cl)c2ccccc2c1O	64		ED10 (Cynomolgus monkey [7]): 13 mg/kg; Activity (Cynomolgus monkey [8]): Active
Cc1nc(Cc2ccc(C(F)(F)F)cc2)nc(C(=O)NCC(=O)O)c1O	29	11	
